These results are taken from US20020103111A1, “Inhibitors of MAdCAM-1-mediated interactions and methods of use therefor” (Millennium Pharmaceuticals, Inc., priority 1996, published 2002).

This assay deals with T1, murine MAdCAM-1 (MAdCAM-1/mCk fusion protein); α4β7-bearing HUT 78 cells (Homo sapiens, UniProt P13612+P26010).
T1 construct: host or cells: HUT 78 cells (endogenous α4β7); The MAdCAM-1/mCk partner was made in house in baculovirus-infected Sf9 insect cells, used as neat supernatant and captured by rat anti-mCk antibody
The assay can be described thus: Adhesion of HUT 78 cells to MAdCAM-1/mCk fusion protein bound via capture antibody. The class given is cell-based. The following applies: for IC50: HUT 78 cell adhesion to MAdCAM-1/mCk, average of two determinations; for % Adhesion Inhibition 500 μM: 500 μM compound, HUT 78 cells, Mn2+ activated. The protocol: The compounds of the present invention were evaluated for their biological properties.
A soluble fusion protein comprising murine MAdCAM-1 was produced in a baculovirus expression system and used in the adhesion assay. A fusion gene in which sequences encoding the signal peptide and extracellular domain of murine MAdCAM-1 were fused to sequences encoding a constant region of the murine kappa light chain (mCk) was constructed, and cloned into a baculovirus shuttle vector. Fusion protein produced from the resulting construct contained the integrin binding sequences of murine MAdCAM-1 at the amino-terminus, and the mCk sequence at the carboxy-terminus. Recombinant baculovirus encoding the fusion protein was harvested from infected Sf9 insect cells.
Human T-cell lymphoma cells (HUT 78 cells) activated with Mn^+2 were used for the adhesion assay in a 96-well format. HUT 78 cells were labelled by preincubation with ECECF-AM stain (Molecular Probes). Assays were conducted in a final volume of 200 μl. The adhesion of HUT 78 cells to MAdCAM-1/mCk fusion protein bound to wells via rat anti-mCk capture antibody was assessed in the presence or absence of each compound. […] Percent inhibition and IC50 values were determined.
HUT 78 cells (a human T cell lymphoma line; American Type Culture Collection, Accession No. ATCC TIB 161) were maintained in culture for up to one month in RPMI 1640 supplemented with 10% FCS, 20 mM HEPES, and Pen-Strep (1:100). Just prior to use in adhesion assays, cells were labeled with BCECF-AM as follows: 1×10^7 cells were pelleted at 1000 rpm for 10 minutes and resuspended in 25 mL cold PBS (Phosphate Buffered Saline). The cells were pelleted again, resuspended in cold PBS, and pelleted again. The cell pellet was resuspended in 25 ml PBS and labeled with 50 μl BCECF-AM (1 μg/μL in DMSO) for 30 minutes at 37° C. (BCECF-AM; 2′,7′-bis-(2-carboxyethyl)-5-(and-6)-carboxyflourescein, acetoxymethyl ester). The labeled cells were pelleted at 700 rpm for 10 minutes, resuspended in 25 ml cold Assay Buffer and pelleted.
The assay was performed in a 96-well format. Plates were coated overnight at 4° C. with 53 μl/well of a 5 μg/mL solution of rat anti-mCk in carbonate buffer. The plates were blocked for 1 hour at 37° C. with 100 μL/well of 1% BSA in PBS. The BSA/PBS solution was removed, and 50 μL of MAdCAM-mCk supernatant was added neat to each well. The assay was conducted under conditions in which capture antibody was the limiting reagent.
Cell adhesion was measured in the presence or absence of compounds. The compounds were resuspended in 100% DMSO, subsequently diluted 1:10 in water, and finally diluted again 1:10 in the assay: 50 μL of 2X Assay Bufler, 30 μL water, 20 μL of compound were added to each well. […] Cell adhesion occurred in 30 minutes at ambient temperature, after which plates were washed with 50 mM Tris/2 mM MnCl2, pH 7.2 using an EL 404 Microplate Autowasher (BIO-TEK Instruments) using the following wash parameters: wash volume=500 μL; two wash cycles; wash depth=80; aspirating after each wash.
Additional determinations were conducted as needed, so that each IC50 was determined over a range which encompassed the IC50. Over this range, Four different concentrations were tested in duplicate.
For each compound, a ratio was determined as follows: An average of the readings from duplicate wells was divided by an average of eight control wells (adhesion in the absence of any compound). […] In addition, the concentration (μM) of compound used was plotted against the resulting ratios.
The IC50 was then determined using Kaleidograph software (Abelbeck Software). The complete procedure was repeated again using duplicate wells for each point.

The mark [1] stands for this setting: HuT78, read-out: % Adhesion Inhibition.

Where two headings read alike, the source gives them in different places. Square brackets hold non-standard residues; d marks the D form. Ends that are not written are not given here. Peptide text beside a SMILES is read from it. * marks the point of attachment. Butanoyl(4-pyren-1-yl) = O=C(CCCc1ccc2ccc3cccc4ccc1c2c34)*; Cyclopentanecarbonyl = O=C(C1CCCC1)*; NMeL = CN[C@@H](CC(C)C)C(=O)O

As usually defined, the IC50 is the concentration that gives 50% inhibition. Consider `CC(C)C[C@H](NC(=O)[C@H](CO)NC(=O)[C@@H](NC(=O)[C@H](CC(=O)O)NC(=O)[C@H](CC(C)C)NC(=O)c1ccc2cc3ccccc3cc2c1)[C@@H](C)O)C(N)=O` [Example 38, 2-Anc-Leu-Asp-Thr-Ser-Leu], for which, for the setting “read-out: IC50”, the IC50 came out at 5.4 µM.

One may read the inhibition as how much of the control response was suppressed. As for `CC(C)C[C@H](NC(=O)[C@H](CO)NC(=O)[C@@H](NC(=O)[C@H](C)NC(=O)[C@H](CC(C)C)NC(=O)CCCc1ccc2ccc3cccc4ccc1c2c34)[C@@H](C)O)C(N)=O` [Example 39, Pba-Leu-Ala-Thr-Ser-Leu] ({Butanoyl(4-pyren-1-yl)}-LATSL-NH2), the inhibition at 250 µM under setting [1] was 100%. The same molecule had an IC50 (IC50 (μM)) of 28 µM.

On to `CC(C)C[C@H](NC(=O)[C@H](CO)NC(=O)[C@@H](NC(=O)[C@H](Cc1ccc(O)cc1)NC(=O)[C@H](CC(C)C)NC(=O)CCCc1ccc2ccc3cccc4ccc1c2c34)[C@@H](C)O)C(N)=O` [Example 42, Pba-Leu-Tyr-Thr-Ser-Leu] ({Butanoyl(4-pyren-1-yl)}-LYTSL-NH2), for which the inhibition at 500 µM (HuT78, read-out: % Adhesion Inhibition 500 μM) turned out to be 100%. Where the note is “IC50 (μM)”, this molecule gave an IC50 of 30 µM.

As to `CC(=O)N(C)[C@@H](CC(C)C)C(=O)N[C@@H](CC(=O)O)C(=O)N[C@H](C(=O)N[C@@H](CO)C(=O)N[C@@H](CC(C)C)C(N)=O)[C@@H](C)O` [Example 49, Ac-MeLeu-Asp-Thr-Ser-Leu], the IC50 (read-out: IC50) turned out to be 150 µM.

As for `CC(C)C[C@H](NC(=O)[C@H](CO)NC(=O)[C@@H](NC(=O)[C@H](CC(=O)O)NC(=O)C1CCCC1)[C@@H](C)O)C(N)=O` [Example 50, Cpc-Asp-Thr-Ser-Leu] (Cyclopentanecarbonyl-DTSL-NH2), the IC50 (read-out: IC50) was 8.9 µM.

As to `CC(C)C[C@H](NC(=O)[C@H](CO)NC(=O)[C@@H](NC(=O)[C@H](CC(=O)O)NC(=O)CCCc1ccc2ccc3cccc4ccc1c2c34)[C@@H](C)O)C(N)=O` [Example 51, Pba-Asp-Thr-Ser-Leu] ({Butanoyl(4-pyren-1-yl)}-DTSL-NH2), the inhibition at 100 µM under setting [1] was 100%. The same molecule registered an IC50 (IC50 (μM)) of 13.3 µM.

As for `C[C@@H](O)[C@H](NC(=O)[C@H](CC(=O)O)NC(=O)c1ccc2ccc3cccc4ccc1c2c34)C(N)=O` [Example 52, Pca-Asp-Thr], the IC50 (read-out: IC50) was 11 µM.

For `C[C@@H](O)[C@H](NC(=O)[C@H](CC(=O)O)NC(=O)CCCc1ccc2ccc3cccc4ccc1c2c34)C(N)=O` [Example 53, Pba-Asp-Thr], the inhibition at 100 µM under setting [1] is 100%. For the setting “IC50 (μM)”, this molecule gave an IC50 of 13.5 µM.

In the case of “Ac-Arg-Gly-Leu-Asp-Thr-Ser-Leu-Gly (Ac-RGLDTSLG; not fully specified (C-terminus); printed as Ac-Arg-Gly-Leu-Asp-Thr-Ser-Leu-Gly) [Example 59]”, the “% Adhesion Inhibition 500 μM” value came out at 75%.

In the case of “Ac-Arg-Val-His-Trp-Arg-Gly-Leu-Asp-Thr-Ser-Leu-Gly-Ser-Val-Gln (Ac-RVHWRGLDTSLGSVQ; not fully specified (C-terminus); printed as Ac-Arg-Val-His-Trp-Arg-Gly-Leu-Asp-Thr-Ser-Leu-Gly-Ser-Val-Gln) [Example 62]”, the “% Adhesion Inhibition 500 μM” value was 88%.

Take “Ac-His-Trp-Arg-Gly-Leu-Asp-Thr-Ser-Leu-Gly-Ser-Val (Ac-HWRGLDTSLGSV; not fully specified (C-terminus); printed as Ac-His-Trp-Arg-Gly-Leu-Asp-Thr-Ser-Leu-Gly-Ser-Val) [Example 61]”: the “% Adhesion Inhibition 500 μM” value turned out to be 71%.

On to “Ac-Leu-Asp-Thr-Ser-Leu (Ac-LDTSL; not fully specified (C-terminus); printed as Ac-Leu-Asp-Thr-Ser-Leu) [Example 58]”, for which the “% Adhesion Inhibition 500 μM” value came to 71%.

As for Ac-Lle-Asp-Thr-Ser-Leu [Example 46], the “% Adhesion Inhibition 500 μM” value came out at 17%.

Take “Ac-Trp-Arg-Gly-Leu-Asp-Thr-Ser-Leu-Gly-Ser (Ac-WRGLDTSLGS; not fully specified (C-terminus); printed as Ac-Trp-Arg-Gly-Leu-Asp-Thr-Ser-Leu-Gly-Ser) [Example 60]”: the “% Adhesion Inhibition 500 μM” value is 71%.

Regarding “MeLeu-Leu-Asp-Thr-Ser-Leu ([NMeL]LDTSL) [Example 27]”, the “% Adhesion Inhibition 500 μM” value is 54%. The IC50 (read-out: IC50) is 256 µM.

Take “NH2-Arg-Val-His-Trp-Arg-Gly-Leu-Asp-Thr-Ser-Leu-Gly-Ser-Val-Gln (H-RVHWRGLDTSLGSVQ; not fully specified (C-terminus); printed as NH2-Arg-Val-His-Trp-Arg-Gly-Leu-Asp-Thr-Ser-Leu-Gly-Ser-Val-Gln) [Example 57]”: the “% Adhesion Inhibition 500 μM” value came out at 90%.

Turning to “NH2-His-Trp-Arg-Gly-Leu-Asp-Thr-Ser-Leu-Gly-Ser-Val (H-HWRGLDTSLGSV; not fully specified (C-terminus); printed as NH2-His-Trp-Arg-Gly-Leu-Asp-Thr-Ser-Leu-Gly-Ser-Val) [Example 56]”, the “% Adhesion Inhibition 500 μM” value turned out to be 80%.

Regarding “NH2-Leu-Asp-Thr-Ser-Leu (H-LDTSL; not fully specified (C-terminus); printed as NH2-Leu-Asp-Thr-Ser-Leu) [Example 54]”, the “% Adhesion Inhibition 500 μM” value amounted to 22%.

Take “NH2-Trp-Arg-Gly-Leu-Asp-Thr-Ser-Leu-Gly-Ser (H-WRGLDTSLGS; not fully specified (C-terminus); printed as NH2-Trp-Arg-Gly-Leu-Asp-Thr-Ser-Leu-Gly-Ser) [Example 55]”: the “% Adhesion Inhibition 500 μM” value is listed as 76%.
